Numbers after ± are expanded uncertainties.
Conditions: gamma-ray densimeter

Fc1c(F)c(F)c(F)c(F)c1F [hexafluorobenzene]
mass density [kg/m3]
Conditions | Gas | Liquid
298.79 K | – | 1605.4 ± 3
323.83 K | 2.3 | 1548.5 ± 3
343.88 K | – | 1499.4 ± 3
363.85 K | – | 1450.5 ± 3
383.91 K | 15.5 ± 3 | 1397.9 ± 3
403.92 K | 25.8 ± 3 | 1342.1 ± 3
423.93 K | 40.6 ± 3 | 1281.2 ± 3
443.9 K | 62.7 ± 3 | 1213.9 ± 3
463.89 K | 95.3 ± 3 | 1135.3 ± 3
483.9 K | 146.7 ± 3 | 1037.1 ± 3.1
493.93 K | 186 ± 3 | 974 ± 3.1
503.88 K | 243.5 ± 3.1 | 892.3 ± 3.1
508.9 K | 287 ± 3.2 | 835.8 ± 3.3
513.91 K | 363.5 ± 3.6 | 744.6 ± 3.7
513.92 K | 363.5 ± 3.6 | 746.3 ± 3.7
515.98 K | 433.7 ± 10 | 670.3 ± 11
516.28 K | 455.8 ± 10 | 644.8 ± 11
516.57 K | 491.5 ± 10 | 610.1 ± 11

— the NIST ThermoML archive (doi:10.1007/s10765-006-0092-8)
